Numbers after ± are expanded uncertainties.
Conditions: 293.15 K, Liquid, Vibrating tube method

CCCCCCCCCC [decane]
Conditions	mass density [kg/m3]
17005 kPa	742.2 ± 2
17022 kPa	742.3 ± 2
17041 kPa	742.3 ± 2
17058 kPa	742.3 ± 2
17074 kPa	742.3 ± 2
17089 kPa	742.1 ± 2
17103 kPa	742.4 ± 2
17122 kPa	742.2 ± 2
17142 kPa	742.2 ± 2
17156 kPa	742.3 ± 2
17176 kPa	742.3 ± 2
17193 kPa	742.3 ± 2
17207 kPa	742.3 ± 2
17227 kPa	742.3 ± 2
17240 kPa	742.3 ± 2
17257 kPa	742.4 ± 2
17274 kPa	742.5 ± 2
17296 kPa	742.3 ± 2
17313 kPa	742.4 ± 2
17338 kPa	742.4 ± 2
17352 kPa	742.4 ± 2
17370 kPa	742.4 ± 2
17390 kPa	742.4 ± 2
17410 kPa	742.4 ± 2
17425 kPa	742.4 ± 2
17440 kPa	742.5 ± 2
17453 kPa	742.5 ± 2
17471 kPa	742.5 ± 2
17486 kPa	742.5 ± 2
17508 kPa	742.5 ± 2
17521 kPa	742.6 ± 2
17538 kPa	742.6 ± 2
17558 kPa	742.6 ± 2
17571 kPa	742.6 ± 2
17589 kPa	742.5 ± 2
17610 kPa	742.6 ± 2
17627 kPa	742.7 ± 2
17648 kPa	742.6 ± 2
17663 kPa	742.6 ± 2
17679 kPa	742.6 ± 2
17699 kPa	742.6 ± 2
17715 kPa	742.7 ± 2
17736 kPa	742.7 ± 2
17752 kPa	742.7 ± 2
17772 kPa	742.8 ± 2
17787 kPa	742.6 ± 2
17806 kPa	742.7 ± 2
17828 kPa	742.8 ± 2
17849 kPa	742.7 ± 2
17868 kPa	742.8 ± 2
17883 kPa	742.8 ± 2
17899 kPa	742.8 ± 2
17913 kPa	742.8 ± 2
17931 kPa	742.9 ± 2
17955 kPa	743 ± 2
17969 kPa	742.9 ± 2
17985 kPa	743 ± 2
18004 kPa	742.9 ± 2
18017 kPa	742.9 ± 2
18036 kPa	742.9 ± 2
18058 kPa	743 ± 2
18072 kPa	743 ± 2
18088 kPa	743 ± 2
18102 kPa	742.9 ± 2
18118 kPa	742.9 ± 2
18140 kPa	743 ± 2
18162 kPa	742.9 ± 2
18178 kPa	743.2 ± 2
18195 kPa	743 ± 2
18214 kPa	743 ± 2
18233 kPa	743 ± 2
18256 kPa	742.9 ± 2
18273 kPa	743.2 ± 2
18295 kPa	743 ± 2
18317 kPa	743 ± 2
18342 kPa	743.1 ± 2
18359 kPa	743.1 ± 2
18381 kPa	743.1 ± 2
18400 kPa	743.1 ± 2
18418 kPa	743.2 ± 2
18434 kPa	743.1 ± 2
18457 kPa	743.3 ± 2
18474 kPa	743.3 ± 2
18500 kPa	743.2 ± 2
18520 kPa	743.3 ± 2
18538 kPa	743.2 ± 2
18560 kPa	743.3 ± 2
18581 kPa	743.3 ± 2
18599 kPa	743.3 ± 2
18622 kPa	743.3 ± 2
18645 kPa	743.4 ± 2
18663 kPa	743.4 ± 2
18686 kPa	743.3 ± 2
18701 kPa	743.3 ± 2
18728 kPa	743.3 ± 2
18745 kPa	743.3 ± 2
18766 kPa	743.4 ± 2
18793 kPa	743.4 ± 2
18811 kPa	743.5 ± 2
18832 kPa	743.4 ± 2
18849 kPa	743.4 ± 2
18871 kPa	743.5 ± 2
18888 kPa	743.5 ± 2
18912 kPa	743.5 ± 2
18936 kPa	743.6 ± 2
18955 kPa	743.5 ± 2
18976 kPa	743.6 ± 2
19001 kPa	743.6 ± 2
19019 kPa	743.6 ± 2
19043 kPa	743.6 ± 2
19062 kPa	743.5 ± 2
19077 kPa	743.5 ± 2
19096 kPa	743.7 ± 2
19115 kPa	743.7 ± 2
19134 kPa	743.7 ± 2
19153 kPa	743.7 ± 2
19172 kPa	743.6 ± 2
19191 kPa	743.6 ± 2
19259 kPa	743.8 ± 2
19307 kPa	743.7 ± 2
19325 kPa	743.7 ± 2
19340 kPa	743.7 ± 2
19353 kPa	743.9 ± 2
19374 kPa	743.8 ± 2
19395 kPa	743.9 ± 2
19408 kPa	743.8 ± 2
19424 kPa	743.9 ± 2
19451 kPa	743.9 ± 2
19464 kPa	743.9 ± 2
19480 kPa	743.8 ± 2
19495 kPa	743.8 ± 2
19511 kPa	743.8 ± 2
19524 kPa	743.8 ± 2
19536 kPa	743.9 ± 2
19556 kPa	743.9 ± 2
19575 kPa	744 ± 2
19589 kPa	743.9 ± 2
19602 kPa	743.9 ± 2
19616 kPa	743.9 ± 2
19630 kPa	743.8 ± 2
19643 kPa	744 ± 2
19662 kPa	744 ± 2
19678 kPa	743.9 ± 2
19692 kPa	744 ± 2
19712 kPa	744 ± 2
19726 kPa	744 ± 2
19742 kPa	744 ± 2
19763 kPa	744 ± 2
19775 kPa	744 ± 2
19793 kPa	744.1 ± 2
19810 kPa	744.1 ± 2
19824 kPa	744.2 ± 2
19838 kPa	744.1 ± 2
19852 kPa	744.1 ± 2
19866 kPa	744.1 ± 2
19883 kPa	744.1 ± 2
19897 kPa	744.1 ± 2
19914 kPa	744.2 ± 2
19935 kPa	744.2 ± 2
19950 kPa	744.2 ± 2
19969 kPa	744.4 ± 2
19983 kPa	744.2 ± 2
19999 kPa	744.2 ± 2
20016 kPa	744.2 ± 2
20035 kPa	744.3 ± 2
20055 kPa	744.2 ± 2
20072 kPa	744.3 ± 2
20084 kPa	744.3 ± 2
20103 kPa	744.2 ± 2
20120 kPa	744.2 ± 2
20137 kPa	744.3 ± 2
20152 kPa	744.2 ± 2
20165 kPa	744.3 ± 2
20181 kPa	744.2 ± 2
20196 kPa	744.4 ± 2
20218 kPa	744.4 ± 2
20233 kPa	744.4 ± 2
20251 kPa	744.3 ± 2
20263 kPa	744.5 ± 2
20288 kPa	744.3 ± 2
20306 kPa	744.4 ± 2
20326 kPa	744.3 ± 2
20343 kPa	744.4 ± 2
20365 kPa	744.5 ± 2
20383 kPa	744.5 ± 2
20398 kPa	744.5 ± 2
20413 kPa	744.5 ± 2
20428 kPa	744.5 ± 2
20450 kPa	744.6 ± 2
20470 kPa	744.5 ± 2
20485 kPa	744.5 ± 2
20503 kPa	744.6 ± 2
20519 kPa	744.5 ± 2
20535 kPa	744.6 ± 2
20555 kPa	744.6 ± 2
20576 kPa	744.6 ± 2
20591 kPa	744.6 ± 2
20611 kPa	744.6 ± 2
20636 kPa	744.6 ± 2
20654 kPa	744.6 ± 2
20670 kPa	744.7 ± 2
20688 kPa	744.8 ± 2
20711 kPa	744.7 ± 2
20727 kPa	744.6 ± 2
20743 kPa	744.7 ± 2
20764 kPa	744.6 ± 2
20785 kPa	744.7 ± 2
20803 kPa	744.7 ± 2
20822 kPa	744.7 ± 2
20837 kPa	744.9 ± 2
20856 kPa	744.7 ± 2
20872 kPa	744.8 ± 2
20893 kPa	744.8 ± 2
20909 kPa	744.8 ± 2
20930 kPa	744.9 ± 2
20946 kPa	744.9 ± 2
20964 kPa	744.9 ± 2
20980 kPa	744.9 ± 2
20999 kPa	745 ± 2
21015 kPa	744.9 ± 2
21039 kPa	744.9 ± 2
21058 kPa	744.9 ± 2
21074 kPa	744.8 ± 2
21093 kPa	744.9 ± 2
21109 kPa	745 ± 2
21128 kPa	744.9 ± 2
21144 kPa	745 ± 2
21163 kPa	745 ± 2
21179 kPa	744.9 ± 2
21196 kPa	745.1 ± 2
21212 kPa	745 ± 2
21228 kPa	744.9 ± 2
21247 kPa	744.9 ± 2
21266 kPa	745.1 ± 2
21283 kPa	745.1 ± 2
21304 kPa	745 ± 2
21320 kPa	745.2 ± 2
21339 kPa	745.1 ± 2
21361 kPa	745.1 ± 2
21381 kPa	745.2 ± 2
21397 kPa	745.2 ± 2
21417 kPa	745.2 ± 2
21436 kPa	745.1 ± 2
21453 kPa	745.1 ± 2
21470 kPa	745.2 ± 2
21492 kPa	745 ± 2
21514 kPa	745.1 ± 2
21534 kPa	745.2 ± 2
21559 kPa	745.2 ± 2
21576 kPa	745.2 ± 2
21596 kPa	745.3 ± 2
21619 kPa	745.3 ± 2
21641 kPa	745.2 ± 2
21661 kPa	745.2 ± 2
21681 kPa	745.2 ± 2
21704 kPa	745.4 ± 2
21724 kPa	745.3 ± 2
21747 kPa	745.4 ± 2
21764 kPa	745.4 ± 2
21789 kPa	745.5 ± 2
21810 kPa	745.3 ± 2
21827 kPa	745.3 ± 2
21847 kPa	745.5 ± 2
21865 kPa	745.5 ± 2
21885 kPa	745.4 ± 2
21900 kPa	745.3 ± 2
21924 kPa	745.5 ± 2
21947 kPa	745.5 ± 2
21965 kPa	745.4 ± 2
21983 kPa	745.4 ± 2
22000 kPa	745.4 ± 2
22018 kPa	745.5 ± 2
22037 kPa	745.5 ± 2
22053 kPa	745.5 ± 2

Reference: the NIST ThermoML archive (doi:10.1021/je800110r)
